Test results from patent US20120135089A1, “E3 LIGASE INHIBITORS” (priority 2009, published 2012).
Where “and” joins values, the source holds several entries; their conditions need not be identical. Equal entries are not always repeated. Where two headings read alike, the source gives them in different places.

Key:
[1] = target: T1, Mdm2-luciferase fusion protein (Homo sapiens, UniProt Q00987); experiment: cell-based Mdm2 auto-ubiquitination luminescence assay, Mdm2-luciferase cell line; conditions: for luminescence of the Mdm2-luciferase cell line: 384-well format; for EC50: 2 hours treatment
T1 construct: Using full-length Mdm2 allowed for the presence of all domains of Mdm2; expressed in transfected cells
T1 sequence (Q00987 whole entry, the tested form may be a part): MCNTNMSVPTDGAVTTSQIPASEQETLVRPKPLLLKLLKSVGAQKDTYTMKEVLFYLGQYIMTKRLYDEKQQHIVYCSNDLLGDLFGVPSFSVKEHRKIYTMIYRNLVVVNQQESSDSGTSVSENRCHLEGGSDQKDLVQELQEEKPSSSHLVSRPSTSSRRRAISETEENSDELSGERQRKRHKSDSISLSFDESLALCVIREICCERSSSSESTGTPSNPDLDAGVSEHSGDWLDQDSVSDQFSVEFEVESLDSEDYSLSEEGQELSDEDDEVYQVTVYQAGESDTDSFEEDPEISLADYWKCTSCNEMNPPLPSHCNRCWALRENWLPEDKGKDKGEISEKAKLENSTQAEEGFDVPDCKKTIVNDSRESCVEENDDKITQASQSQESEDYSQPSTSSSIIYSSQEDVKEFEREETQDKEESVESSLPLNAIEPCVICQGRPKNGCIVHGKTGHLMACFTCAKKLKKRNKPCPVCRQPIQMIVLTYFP
Protocol: Cells were plated in 384-well format and treated with MG132 (2 hours) or cycloheximide (30 minutes). Steadylite luminescence buffer (PerkinElmer) was added and the relative luminescence levels determined on a Victor3 Plate Reader. Each graph represents the median of 5 replicates normalized to a no treatment control, and one standard deviation is shown. […] The graphs and EC50 values were determined using Graphpad PRISM®. […] U2OS, RKO, and HCT116 cells (p53 wild-type) were incubated with 5 μg/ml (14 μM) of MEL23, 5 μg/ml (15 μM) of MEL24, or 10 μM of MG132 for 6 hours. Cells were lysed and analyzed by Western blotting using anti-Mdm2, anti-p53, and anti-eIF4E antibodies. NT indicates a no treatment control. […] MCF7 cells (p53 wild-type) were incubated with 30 μg/ml (51 μM) etoposide alone or in combination with 50 μM AlIn or 5 μg/ml (14 μM) MEL23, or 5 μg/ml (15 μM) MEL24 for 16 hours. Cells were lysed and analyzed by Western blotting using anti-MDMX and anti-actin antibodies.
The Mdm2-luciferase cell line was seeded at 7,500 cells per well, in 384-well white plates (PerkinElmer, Waltham, Mass., Cat. No. 6007688), in 27 μl of media (DMEM with FBS and P/S). Assay plates with cells were incubated at 37° C. overnight to allow cells to adhere. After 24 hours, 2 μl from the ‘mother’ plate (4 mg/ml) was transferred to a ‘daughter plate’ containing 148 μl media in order to dilute the compound 1:75. Next, 3 μl from each well of the ‘daughter plates’ was added to triplicate assay plates for a final concentration of 5.33 μg/ml. Assay plates were incubated at 37° C. for 2 hours. Then the cells were lysed with the addition of 30 μl of luminescence buffer (PerkinElmer, Cat. No. 6016989), and the plates were incubated at room temperature for 30 minutes before being analyzed on a Victor3 Plate Reader (PerkinElmer) for luminescence. […] All repurchased compounds were tested in a 2-fold dilution series via the same protocol as the primary screening. All transfers were conducted using a BioMek (Beckman Coulter, Fullerton, Calif.). […] This was determined by comparing the negative control, no treatment, to the positive control, 10 μM MG132.
To identify Mdm2 E3 ligase inhibitors, a high-throughput cellular assay to measure changes in Mdm2 auto-ubiquitination and degradation was designed. This assay took advantage of the fact that Mdm2 can regulate itself in cells through ubiquitination and degradation (8). Two fusion proteins were constructed for the assay: (a) a wild-type Mdm2-luciferase fusion protein, which can auto-ubiquitinate and thereby target itself for degradation; and (b) a mutant Mdm2(C464A)-luciferase fusion protein. Both fusion proteins were constructed with luciferase N-terminal to Mdm2. The C464A mutation disrupts a metal binding site in the RING domain, thereby preventing Mdm2 E3 ligase activity (8). Small molecules that increase the luminescence of the Mdm2-luciferase fusion protein without increasing the luminescence of the Mdm2(C464A)-luciferase fusion protein are likely inhibiting Mdm2 E3 ligase activity or the proteasomal degradation of Mdm2. Alternatively, small molecules that increase the luminescence of both fusion proteins are likely affecting transcription, translation, or have a general cellular impact that is not dependent on the E3 ligase activity of Mdm2 or proteasomal degradation.

[2] = test system: Mdm2-ubiquitin conjugates; experiment: cell-based Mdm2 ubiquitination assay (HA-ubiquitin immunoprecipitation); design: species or system human; conditions: Mdm2-luciferase cells, with 10 μM MG132
Protocol: To obtain the results shown in FIG. 4A, Mdm2-luciferase cells were transfected with ubiquitin-HA and treated 8 hours later with 10 μg/ml (28 μM) MEL23, 10 μg/ml (31 μM) MEL24, or a DMSO control. After 16 hours, cells were additionally treated with 10 μM MG132 or a DMSO control. After 3 hours, cells were lysed and immunoprecipitated for 3 hours with anti-HA affinity matrix. Total lysates and immunoprecipitated samples were analyzed by Western blotting using anti-Mdm2 antibody. NT indicates a no treatment control. […] After 8 hours, cells were treated with 10 μg/ml (28 μM) MEL23, 10 μg/ml (31 μM) MEL24, or a DMSO control. After 16 hours, cells were additionally treated with 10 μM MG132 or a DMSO control. After 3 hours cells were lysed and analyzed by Western blotting using anti-p53 antibody. […]
The Mdm2-luciferase cell line was transfected with HA-ubiquitin and pre-treated with 10 μg/ml MEL23 or MEL24, followed by 10 μM MG132. […] Cells lysates were immunoprecipitated with an anti-HA antibody and analyzed by Western blotting. […]
Briefly, Mdm2-luciferase cells were transfected with HA-ubiquitin. […] Input lysates and immunoprecipitated samples were analyzed by Western blotting using anti-Mdm2 antibody.
Briefly, Mdm2-luciferase cells were transfected with HA-ubiquitin. […] Input lysates and immunoprecipitated samples were analyzed by Western blotting using anti-Mdm2 antibody. […]

CCCCn1c(=O)[nH]c(O)c(C2NCCc3c2[nH]c2ccccc32)c1=O (stereo not drawn) [MEL23]
luminescence of the Mdm2-luciferase cell line [1]: increased the luminescence of the Mdm2-luciferase cell line to a similar level as with MG132 treatment | EC50 ([1]; EC50, Mdm2-luciferase cell line): 7.62 µM and 7.5 µM | Mdm2 ubiquitination in cells (Mdm2-ubiquitin conjugates) [2]: significantly less Mdm2-ubiquitin conjugates were immunoprecipitated

Cn1c(O)c(C2NCCc3c2[nH]c2ccccc32)c(=O)n(C)c1=O (stereo not drawn) [MEL24]
luminescence of the Mdm2-luciferase cell line [1]: increased the luminescence of the Mdm2-luciferase cell line to a similar level as with MG132 treatment | EC50 ([1]; Mdm2-luciferase cell line, read-out: EC50 (converted)): 9.19 µM and 9.2 µM | Mdm2 ubiquitination in cells (Mdm2-ubiquitin conjugates) [2]: significantly less Mdm2-ubiquitin conjugates were immunoprecipitated
